Patent publication US8507460B2, “Substituted 3′,5′-cyclic phosphates of purine nucleotide compounds and pharmaceutical compositions for the treatment of viral infections” (priority 2011, dated 2013)
Read-outs that look alike come from different tables or passages of the source.

Assays:
[1] = Plasma and liver pharmacokinetics following a single oral dose in monkeys (Example 6); assay type: in vivo; settings: cynomolgus monkey; for AUC(0-t) / Cmax / Tmax: Cynomolgus monkeys, single oral dose (mg/kg per Table 6: 1a 10, A 25, B 10, C 10, D 50); for AUC(0-t) / Cmax: normalized to 1 μmol/kg dose; for AUC(0-t): read-out: Plasma prodrug AUC0-24; for Cmax: read-out: Plasma prodrug Cmax; for Tmax: read-out: Plasma prodrug Tmax
Procedure: […] Untreated animals were used for the collection of control liver. Plasma samples were collected at 1, 2, 4, 6, 8, 12 and 24 hours for all compounds and additionally at 0.5 hour (Compounds 1a, B and D), 3 and 10 hours (Compound C), and 32 and 48 hours post dose for Compound A. Terminal liver samples were collected from three animals per time point at 6, 12 and 24 hours post dose for all compounds and additionally at 2 hours (Compounds 1a, B and D), 3 hours (Compound C) and 32 and 48 hours post dose for Compound A. Liver specimens were collected from all animals immediately after the incision. Freezing forceps stored in liquid nitrogen were used to freeze the liver before excision.
(§1) Plasma samples were analyzed for the prodrug and 2′-methylguanosine (2′-MeG) or relevant nucleoside by LC-MS/MS. For protein precipitation and extraction, each plasma sample (50 μL) was treated with 500 μL of 0.2% formic acid in acetonitrile and 20 μL of an appropriate internal standard working solution. After vortexing and centrifugation, 500 μL of the sample extracts were transferred to a new plate, dried under N2 at ˜28° C. and reconstituted with 75 μL of 0.2% FA in water. The extracts were chromatographed on an Aquasil C18 column using a gradient system of 0.2% formic acid in water and acetonitrile. The analytes were detected and quantified by tandem mass spectrometry in positive ion mode on an MDS Sciex API5000 or an API4000 equipped with a Turbo Ionspray® interface. The calibration range was 0.500 (LLOQ) to 200 ng/mL in mouse plasma. The corresponding range for molar units is 1.68 to 673 pmol/mL.
(§2) Liver samples were analyzed for the active species 2′-methylguanosine triphosphate (2′-MeGTP) or relevant nucleoside triphosphate by LC-MS/MS. The triphosphate levels were assayed by homogenizing (on ice) a known weight of mouse liver with 4× volume of 0.95 M trichloroacetic acid (TCA). Appropriate internal standard solution was added to the homogenate followed by neutralization with 20% ammonium hydroxide solution and addition of 500 μL 1% formic acid. The tissue samples were extracted by weak anion exchange solid phase extraction (SPE). Post extraction, the eluates were evaporated under nitrogen, followed by reconstitution before injection onto the LC-MS/MS system. The samples were chromatographed on a Luna NH2 column using a gradient system of ammonium acetate (1 mM to 20 mM and pH 8.0 to pH 10.0) in water and acetonitrile (70:30). The analyte was detected and quantified by tandem mass spectrometry in positive ion mode on an API4000 equipped with a Turbo Ionspray® interface. The calibration range was 10 to 10000 pmol/mL in mouse liver homogenate (50 to 50000 pmol/g of mouse liver).

[2] = Plasma and liver pharmacokinetics following a single oral dose in mice (Example 6); assay type: in vivo; settings: CD-1 mice, oral 25 mg/kg, normalized to 1 μmol/kg dose; 1a average of N = 3
Procedure: For each compound, a single oral dose at 25 mg/kg in PEG 200 (dose volume 5 mL/kg) was administered to [CD-1] mice. Untreated animals were used for the collection of control liver. Terminal liver and plasma samples were collected from three animals per time point at 4, 12 and 24 hours post dose and additionally at 1 hour post dose in one occasion of Compound 1 (see Example 5). Liver specimens were collected from all animals immediately after the incision. Freezing forceps stored in liquid nitrogen were used to freeze the liver before excision.
as §1, §2

| SMILES | AUC(0-t) ([1]; in vivo) | Cmax ([1]; in vivo) | Tmax ([1]; in vivo) | other results |
| --- | --- | --- | --- | --- |
| CC(C)OC(=O)[C@H](C)N[P@](=O)(OC[C@H]1O[C@@H](n2ccc(=O)[nH]c2=O)[C@](C)(F)[C@@H]1O)Oc1ccccc1 [Compound D, L-Alanine, N—((P(S),2′R)-2′-deoxy-2′-fluoro-2′-methyl-P-phenyl-5′-uridylyl)-, 1-methylethyl ester] | 3.5 nM·h | 1.2 nM | 30 min |  |
| CCOc1nc(N)nc2c1ncn2[C@@H]1O[C@@H]2COP(=O)(OC(C)C)O[C@H]2[C@@]1(C)F (stereo partly drawn) [Compound A, 6-ethoxy-9-((4aR,6R,7R,7aR)-7-fluoro-2-isopropoxy-7-methyl-2-oxo-tetrahydro-2,5-furo[3,2-d][1,3,2]dioxaphosphinin-6-yl)-9H-purin-2-yl amine] |  |  |  | AUC(0-t) ([1]; plasma): 410 nM·h; Cmax ([1]; plasma): 100 nM; Tmax ([1]; plasma): 120 min |
| COc1nc(N)nc2c1ncn2[C@@H]1O[C@H](COP(=O)(N[C@@H](C)C(=O)OCC(C)(C)C)Oc2cccc3ccccc23)[C@@H](O)[C@@]1(C)O (stereo partly drawn) [Compound B, L-Alanine, N-(2′-C-methyl-6-O-methyl-P-1-naphthalenyl-5′-guanylyl)-, 2,2-dimethylpropyl ester] | 0.2 nM·h | 0.2 nM | 30 min |  |
| CC(C)(CO)C(=O)SCCOP(=O)(NCc1ccccc1)OCC1OC(n2cnc3c(=O)[nH]c(N)nc32)C(C)(O)C1O (stereo not drawn) [Compound C, 2′-C-methyl-guanosine, 5′-[2-[(3-hydroxy-2,2-dimethyl-1-oxopropyl)thio]ethyl N-(phenylmethyl)phosphoramidate], reference compound] |  |  |  | Plasma prodrug Tmax ([1]; in vivo, po): 360 min; Nucleoside triphosphate in Liver AUC0-24 [2]: 290 pmol·h/g; Nucleoside triphosphate in Liver Cmax [2]: 19 pmol/g |
